In US11730743B2, “Protection of cells from degeneration and treatment of geographic atrophy” (University of Kentucky Research Foundation, priority 2012, dated 2023):

Tests used:
wild-type mice = assay: Alu RNA- or pAlu-induced RPE degeneration after subretinal injection (fundus photographs, ZO-1 flat mounts); format: in vivo; conditions: subretinal Alu RNA, test agent intravitreous
Experimental: Subretinal injection and imaging. Subretinal injections (1 μL) in mice were performed using a Pico-Injector (PLI-100, Harvard Apparatus). In vivo transfection of plasmids was achieved using 10% Neuroporter (Genlantis). Fundus imaging was performed on a TRC-50 IX camera (Topcon) linked to a digital imaging system (Sony). Immunolabeling of RPE flat mounts was performed using antibodies against human zonula occludens-1 (Invitrogen).
Fundus photography. Retinal photographs of dilated mouse eyes were taken with a TRC-50 IX camera (Topcon) linked to a digital imaging system (Sony).
Immunolabeling. Human eyes fixed in 2-4% paraformaldehyde were prepared as eyecups, cryoprotected in 30% sucrose, embedded in optimal cutting temperature compound (Tissue-Tek OCT; Sakura Finetek), and cryosectioned into 10 μm sections. Depigmentation was achieved using 0.25% potassium permanganate and 0.1% oxalic acid. Immunohistochemical staining was performed with the rabbit antibody against NLRP3 (1:100, Sigma Aldrich) or rabbit antibody against Caspase-1 (prediluted, AbCam). Isotype IgG was substituted for the primary antibody to assess the specificity of the staining. Bound antibody was detected with biotin-conjugated secondary antibodies, followed by incubation with ABC reagent and visualized by Vector Blue (Vector Laboratories). Levamisole (Vector Laboratories) was used to block endogenous alkaline phosphatase activity. Slides were washed in PBS, counterstained with neutral red (Fisher Scientific), rinsed with deionized water, air dried, and then mounted in Vectamount (Vector Laboratories). Fluorescent labeling of human tissue was performed with the rabbit antibody against PYCARD (1:50, Clone N-15, Santa Cruz Biotechnology). Immunolabeling was visualized by fluorescently conjugated anti-rabbit secondary antibody (Invitrogen). Tissue autofluorescence was quenched by incubating the sections in 0.3% Sudan black (Fisher Scientific). Sections were mounted in Vectashield with DAPI (Vector Laboratories). Mouse RPE/choroid flat mounts were fixed with 4% paraformaldehyde or 100% methanol, stained with rabbit antibodies against human zonula occludens-1 (1:100, Invitrogen) and visualized with Alexa594 (Invitrogen). All images were obtained using the Leica SP-5 or Zeiss Axio Observer Z1 microscopes.
Subretinal injection. Subretinal injections (1 μL) in mice were performed using a Pico-Injector (PLI-100, Harvard Apparatus). In vivo transfection of plasmids coding for two different Alu sequences (pAlu) or empty control vector (pNull) (Bennett et al., 2008; Kaneko et al., 2011; Shaikh et al., 1997) was achieved using 10% Neuroporter (Genlantis). AAV1-BEST1-Cre (Alexander and Hauswirth, 2008) or AAV1-BEST1-GFP were injected at […] pfu/mL and in vitro transcribed Alu RNA was injected at 0.3 mg/mL.
Drug treatments. siRNAs formulated in siRNA buffer (20 mM KCL, 0.2 mM MgCl2 in HEPES buffer at pH 7.5; Dharmacon) or phosphate buffered saline (PBS; Sigma-Aldrich); the TLR4 antagonist Ultra Pure Rhodobacter sphaeroides LPS (LPS-RS, InvivoGen), a peptide inhibitor of MyD88 homodimerization IMG-2005 (IMGENEX), control inhibitor (IMGENEX), recombinant IL-18 (Medical & Biological Laboratories), neutralizing rat antibodies against mouse IL-1β (IMGENEX), neutralizing rat antibodies against mouse IL-18 (Medical & Biological Laboratories), isotype control IgGs (R&D Systems or eBioscience as appropriate), Caspase-1 inhibitor Z-WEHD-FMK (R&D Systems), Caspase-3 inhibitor Z-DEVD-FMK (R&D Systems), Caspase control inhibitor Z-FA-FMK (R&D Systems), (2R,4R)-APDC (Enzo Life Sciences), Glipizide (Sigma-Aldrich), Glyburide (Sigma-Aldrich), and P2X7 receptor antagonist A438079 (Tocris Bioscience) were dissolved in phosphate buffered saline (PBS; Sigma-Aldrich) or dimethyl sulfoxide (DMSO; Sigma-Aldrich), and injected into the vitreous humor in a total volume of 1 μL with a 33-gauge Exmire microsyringe (Ito Corporation). […]

[1] = tested on: Dicer1f/f mouse RPE cells; assay: Cell viability of Dicer1f/f mouse RPE cells treated with Ad-Cre; format: cell-based
Experimental: (§1) Adenoviral infection. Cells were plated at density of 15×10^3/cm^2 and after 16 h, at approximately 50% confluence, were infected with AdCre or AdNull (Vector Laboratories) with a multiplicity of infection of 1,000.

[2] = tested on: Dicer1f/f mouse RPE cells; assay: miRNA quantification in Dicer1f/f mouse RPE cells treated with Ad-Cre; format: cell-based; conditions: versus control peptide
Excerpt: miRNA quantification. Total RNA containing miRNAs was polyadenylated and reverse transcribed using universal primer using the All-In-One miRNA q-RT-PCR Detection Kit (GeneCopoeia) according to the manufacturer's specifications using a universal reverse primer in combination with forward primers for: mouse miR-184; mouse miR-221/222; mouse miR-320a; and mouse miR-484. miRNA levels were normalized to levels of U6 snRNA using the 2^−ΔΔct method. Detection was achieved by SYBR green qPCR with the following conditions: 95° C. for 10 min followed by 40 cycles of 95° C. for 10 s, 60° C. for 20 s and 72° C. for 20 s. Amplicon specificity was assessed by melt curve analysis and unique bands by agarose gel electrophoresis.
as §1

Question: What does the source list for “MyD88 inhibitory peptide: peptide inhibitor of MyD88 homodimerization IMG-2005 (IMGENEX)”?
Answer: Alu RNA-induced RPE degeneration (wild-type mice): prevented; cell death in Dicer1f/f mouse RPE cells treated with adenoviral vector coding for Cre recombinase [1]: prevented cell death; miRNA abundance in Dicer1 depleted cells [2]: No significant difference
